Like-named read-outs stand apart in the source and are kept apart here. No end group written: not given here.
Assays:
HLA-A*24:02 molecule = HLA-A*24:02 molecule (Homo sapiens, UniProt P04439, D101N/D140Y/D185E/E176V/E190D/F33S/G103R/G107R/I119L/I121M/I306V/K335N/L105A/L180Q/L300P/N151K/N90K/Q86E/Q94H/R106L/R138H/R89G/T104I/T345S/V100E/W191G/Y123F); experiment: Binding of peptide to HLA-A*24:02 molecule using C1R-A24 cells
Experimental: Measurement of binding ability of a peptide to an HLA-A*24:02 molecule, which is a product of an HLA-A*24:02 gene, was performed using C1R-A24 cells expressing an HLA-A*24:02 molecule (Cells created by Professor Masafumi Takiguchi, Kumamoto University, was provided by Assistant Professor Masaki Yasukawa, Ehime University, with permission).
First, the C1R-A24 cells were exposed to acidic conditions at pH 3.3 for 30 seconds to dissociate and remove an endogenous peptide originally binding to an HLA-A*24:02 molecule and light chain β2m commonly associated with an HLA class I molecule. After neutralization, purified β2m was added to the C1R-A24 cells, and the mixture was added to a peptide dilution series and incubated on ice for four hours.
Thereafter, the number of MHC-peps for each C1R-A24 cell (proportional to a fluorescence intensity of the fluorescent antibody) was quantitatively measured using a fluorescence cell analyzer FACScan (Becton-Dickinson).

HLA-A*02:01 molecule = target: T1, HLA-A*02:01 molecule (Homo sapiens, UniProt P04439, D140Y/D185E/D98H/E176V/E277Q/G131W/G231S/I119V/I121R/I166T/I218V/L300P/L318F/N151K/N90K/P208A/P217A/Q86G/Q94H/R138H/R169H/T345S); experiment: Binding of peptide to HLA-A*02:01 molecule using cell line T2
T1 construct: using a cell line T2 (purchased from ATCC) expressing an HLA-A*02:01 molecule; host or cells: T2 cell line
Experimental: Measurement of binding ability of a peptide to an HLA-A*02:01 molecule, which is a product of an HLA-A*02:01 gene, was performed using a cell line T2 (purchased from ATCC) expressing an HLA-A*02:01 molecule.
T2 cells and purified β2m were added to a serial dilution series of a peptide whose binding ability was to be measured, and then the mixture was incubated at 37° C. for four hours. HLA-A*02:01 molecules whose expression level increased in a peptide concentration-dependent manner by this time point were stained using an association-type specific fluorescently labeled monoclonal antibody BB7.2.
Thereafter, the amount of fluorescence per cell was measured with a flow cytometer, and a dissociation constant Kd value was calculated by the method disclosed in the article (Udaka et al., Immunogenetics, 51, 816-828, 2000) by the present inventor.

HLA-A*02:06 molecule = target: T2, HLA-A*02:06 molecule (Homo sapiens, UniProt P04439, D140Y/D185E/D98H/E176V/E277Q/F33Y/G131W/G231S/I119V/I121R/I166T/I218V/L300P/L318F/N151K/N90K/P208A/P217A/Q86G/Q94H/R138H/R169H/T345S); experiment: Binding of peptide to HLA-A*02:06 molecule using RA2.6 cells
T2 construct: expressed in transfected cells; host or cells: RA2.6 cells (mouse TAP-deficient RMAS with HLA-A*02:06 cDNA)
Experimental: Measurement of binding ability of a peptide to an HLA-A*02:06 molecule, which is a product of an HLA-A*02:06 gene, was performed using RA2.6 cells (a cell line newly created at Kochi University) obtained by introducing cDNA of the HLA-A*02:06 gene into RMAS, which is a mouse transporter associated with antigen processing (TAP)-deficient cell line.
A fluorescently labeled monoclonal antibody BB7.2 that specifically recognizes a peptide binding type HLA-A*02:06 molecule was added thereto, and the mixture was incubated on ice for 20 minutes to stain the cells.

[1] = Measured value of allele A*24:02, Table 2, dissociation constant Kd value (−log Kd value), >−3.0 = no significant binding ability
[2] = Table 2, dissociation constant Kd value (−log Kd value), >−3.0 = no significant binding ability, read-out: Measured value of allele A*24:02 (converted)
[3] = Table 2, dissociation constant Kd value (−log Kd value), >−3.0 = no significant binding ability, read-out: Measured value of allele A*02:01 (converted)
[4] = Table 2, dissociation constant Kd value (−log Kd value), >−3.0 = no significant binding ability, read-out: Measured value of allele A*02:06 (converted)
[5] = Table 4, Kd value (−log Kd value), smaller than −3 = binding property, read-out: Measured value of allele A*24:02 (converted)

ALPAPHLTL [compound 18] showed a Kd (HLA-A*24:02 molecule; [1]) of 0.185 µM, a Kd (HLA-A*02:01 molecule) of 1.02 µM and a Kd (HLA-A*02:06 molecule) of 3.03 µM.
With EAIDGYITL [compound 47] the Kd (HLA-A*24:02 molecule; [2]) was 2.91 µM, the Kd (HLA-A*02:01 molecule; [3]) was > 1000 µM and the Kd (HLA-A*02:06 molecule; [4]) was 18.9 µM.
SLPNEKQTS [compound 69] was tested, and the Kd (HLA-A*24:02 molecule; [2]) was > 1000 µM, the Kd (HLA-A*24:02 molecule; [5]) was > 1000 µM and the Kd (HLA-A*02:01 molecule; [3]) was > 1000 µM. The Kd (HLA-A*02:06 molecule; [4]) was > 1000 µM.
With ALRPAPALL [compound 26] the Kd (HLA-A*24:02 molecule; [2]) was 0.397 µM, the Kd (HLA-A*02:01 molecule; [3]) was 0.774 µM and the “Measured value of allele A*02:06” value (HLA-A*02:06 molecule; Table 2, dissociation constant Kd value (−log Kd value), >−3.0 = no significant binding ability) was >−3.37. For the same sequence, the Kd (HLA-A*02:06 molecule; [4]) was > 427 µM.
ALQPPCPNL [compound 31] was tested, and the Kd (HLA-A*24:02 molecule; [1]) was 4.94 µM, the Kd (HLA-A*02:01 molecule) was 7.44 µM and the Kd (HLA-A*02:06 molecule) was 23.1 µM.
In the case of SLPFSPSQF [compound 56], the Kd (HLA-A*24:02 molecule; [2]) is reported as 0.1 µM, the Kd (HLA-A*02:01 molecule; [3]) is reported as > 1000 µM and the Kd (HLA-A*02:06 molecule; [4]) is reported as > 1000 µM.
For IQYSSFHNL [compound 21], the Kd (HLA-A*24:02 molecule; [1]) was 0.294 µM, the Kd (HLA-A*02:01 molecule) was 5.17 µM and the Kd (HLA-A*02:06 molecule) was 2.51 µM.
HMTSSERPF [compound 64] was tested, and the Kd (HLA-A*24:02 molecule; [2]) was 68.4 µM, the Kd (HLA-A*02:01 molecule; [3]) was > 1000 µM and the Kd (HLA-A*02:06 molecule; [4]) was > 1000 µM.
For LVEEHGATL [compound 43], the Kd (HLA-A*24:02 molecule; [2]) was > 1000 µM, the Kd (HLA-A*24:02 molecule; [5]) was > 1000 µM and the Kd (HLA-A*02:01 molecule; [3]) was 66.1 µM. It also gave a Kd (HLA-A*02:06 molecule; [4]) of 13.7 µM.
Sequence ATAPPTAQL [compound 25] has a Kd (HLA-A*24:02 molecule; [2]) of 29.2 µM, a Kd (HLA-A*02:01 molecule; [3]) of 10.1 µM and a Kd (HLA-A*02:06 molecule; [4]) of 0.684 µM.
With GYITCERPF [compound 65] the Kd (HLA-A*24:02 molecule; [2]) was 0.301 µM, the Kd (HLA-A*02:01 molecule; [3]) was > 1000 µM and the Kd (HLA-A*02:06 molecule; [4]) was > 1000 µM.
AQAPPTAQL [compound 5] showed a Kd (HLA-A*24:02 molecule; [1]) of 1.77 µM, a Kd (HLA-A*02:01 molecule) of 0.961 µM and a Kd (HLA-A*02:06 molecule) of 1.42 µM.
Work on CIDEHQWQL [compound 28] yielded a Kd (HLA-A*24:02 molecule; [2]) of 332 µM, a Kd (HLA-A*02:01 molecule; [3]) of 14 µM and a Kd (HLA-A*02:06 molecule; [4]) of 5.62 µM.
ALPKIRARV [compound 12] showed a Kd (HLA-A*24:02 molecule; [2]) of 0.66 µM, a Kd (HLA-A*02:01 molecule; [3]) of 2.19 µM and a Kd (HLA-A*02:06 molecule; [4]) of 16.6 µM.
For SLLITRKSF [compound 62], the Kd (HLA-A*24:02 molecule; [2]) was 1.44 µM, the Kd (HLA-A*02:01 molecule; [3]) was > 1000 µM and the Kd (HLA-A*02:06 molecule; [4]) was > 1000 µM.
With VMQIDGVQP [compound 67] the Kd (HLA-A*24:02 molecule; [2]) was > 1000 µM, the Kd (HLA-A*24:02 molecule; [5]) was > 1000 µM and the Kd (HLA-A*02:01 molecule; [3]) was > 1000 µM. The Kd (HLA-A*02:06 molecule; [4]) was 389 µM.
With YVYDPPTTI [compound 2] the Kd (HLA-A*24:02 molecule; [2]) was 0.584 µM, the Kd (HLA-A*02:01 molecule; [3]) was 0.696 µM and the Kd (HLA-A*02:06 molecule; [4]) was 2.8 µM.
FSNDFGQSL [compound 35] was tested, and the Kd (HLA-A*24:02 molecule; [2]) was > 1000 µM, the Kd (HLA-A*24:02 molecule; [5]) was > 1000 µM and the Kd (HLA-A*02:01 molecule; [3]) was 126 µM. For the same sequence, the Kd (HLA-A*02:06 molecule; [4]) was 19.3 µM.
For LAITRKSFI [compound 46], the Kd (HLA-A*24:02 molecule; [2]) was 7.61 µM, the Kd (HLA-A*02:01 molecule; [3]) was > 1000 µM and the Kd (HLA-A*02:06 molecule; [4]) was 911 µM.
For VLLQQFQTA [compound 15], the Kd (HLA-A*24:02 molecule; [2]) was 2.81 µM, the Kd (HLA-A*02:01 molecule; [3]) was 19.3 µM and the Kd (HLA-A*02:06 molecule; [4]) was 3.4 µM.
LHEEHGATL [compound 79] was tested, and the Kd (HLA-A*24:02 molecule; [2]) was > 1000 µM, the Kd (HLA-A*24:02 molecule; [5]) was > 1000 µM and the Kd (HLA-A*02:01 molecule; [3]) was > 1000 µM. For the same sequence, the Kd (HLA-A*02:06 molecule; [4]) was > 1000 µM.
For AQISAYRTC [compound 50], the Kd (HLA-A*24:02 molecule; [2]) was > 1000 µM, the Kd (HLA-A*24:02 molecule; [5]) was > 1000 µM and the Kd (HLA-A*02:01 molecule; [3]) was > 1000 µM. It also gave a Kd (HLA-A*02:06 molecule; [4]) of 82.1 µM.
With SSFEFFEEA [compound 37] the Kd (HLA-A*24:02 molecule; [2]) was > 1000 µM, the Kd (HLA-A*24:02 molecule; [5]) was > 1000 µM and the Kd (HLA-A*02:01 molecule; [3]) was 0.32 µM. It also gave a Kd (HLA-A*02:06 molecule; [4]) of 0.0377 µM.
LTEEHGATL [compound 42] was tested, and the Kd (HLA-A*24:02 molecule; [2]) was > 1000 µM, the Kd (HLA-A*24:02 molecule; [5]) was > 1000 µM and the Kd (HLA-A*02:01 molecule; [3]) was 82.1 µM. It also gave a Kd (HLA-A*02:06 molecule; [4]) of 11.9 µM.
In the case of VFGRVMQID [compound 66], the Kd (HLA-A*24:02 molecule; [2]) is reported as 3.87 µM, the Kd (HLA-A*02:01 molecule; [3]) is reported as > 1000 µM and the Kd (HLA-A*02:06 molecule; [4]) is reported as > 1000 µM.
With LMITRKSFI [compound 17] the Kd (HLA-A*24:02 molecule; [2]) was 0.972 µM, the Kd (HLA-A*02:01 molecule; [3]) was 6.26 µM and the Kd (HLA-A*02:06 molecule; [4]) was 29.3 µM.
LTITRKSFI [compound 45] was tested, and the Kd (HLA-A*24:02 molecule; [2]) was 15 µM, the Kd (HLA-A*02:01 molecule; [3]) was > 1000 µM and the Kd (HLA-A*02:06 molecule; [4]) was 162 µM.
For SLVLTWAAL [compound 14], the Kd (HLA-A*24:02 molecule; [2]) was 4.89 µM, the Kd (HLA-A*02:01 molecule; [3]) was 2.36 µM and the Kd (HLA-A*02:06 molecule; [4]) was 0.572 µM.
For YFFTVIFSF [compound 44], the Kd (HLA-A*24:02 molecule; [2]) was 0.168 µM, the Kd (HLA-A*02:01 molecule; [3]) was > 1000 µM and the Kd (HLA-A*02:06 molecule; [4]) was > 39.8 µM.
TLTAWQHGL [compound 33] showed a Kd (HLA-A*24:02 molecule) of 20.1 µM, a Kd (HLA-A*02:01 molecule) of 1.11 µM and a Kd (HLA-A*02:06 molecule) of 1.42 µM.
In the case of STGESAQTS [compound 71], the Kd (HLA-A*24:02 molecule; [2]) is reported as > 1000 µM, the Kd (HLA-A*24:02 molecule; [5]) is reported as > 1000 µM and the Kd (HLA-A*02:01 molecule; [3]) is reported as > 1000 µM. The Kd (HLA-A*02:06 molecule; [4]) was > 1000 µM.

Reference: patent US20250236642A1, “PHARMACEUTICAL COMPOSITION FOR TREATMENT OR PREVENTION OF ADULT T-CELL LEUKEMIA” (NEC Corporation, priority 2022, published 2025)
